Experimental data taken from US6034134A, “1-Amino-alkylcyclohexane NMDA receptor antagonists” (Merz + Co. GmbH & Co., priority 1998, dated 2000).
Structures can show the parent of a compound that is named as a salt.

Tests used:
NMDA receptor = experiment: [3H]-(+)-MK-801 binding to rat cortical membranes; settings: for Ki: read-out: MK-801 Ki, Table 9, Cheng-Prusoff with Kd for MK-801 of […]; for IC50: read-out: [3H] MK-801 IC50, Table 7, footnote calls the values Ki
Procedure: Male Sprague-Dawley rats (200-250 g) were decapitated and their brains were removed rapidly. The cortex was dissected and homogenized in 20 volumes of ice-cold 0.32 M sucrose using a glass-Teflon homogenizer. The homogenate was centrifuged at 1000 ×g for 10 minutes. The pellet was discarded and the supernatant centrifuged at 20,000 ×g for 20 minutes. The resulting pellet was re-suspended in 20 volumes of distilled water and centrifuged for 20 minutes at 8000 ×g. Then the supernatant and the buffy coat were centrifuged three times (48,000 ×g for 20 minutes) in the presence of 50 mM Tris-HCl, pH 8.0. All centrifugation steps were carried out at 4° C. After resuspension in 5 volumes of 50 mM Tris-HCl, pH 8.0 the membrane suspension was frozen rapidly at -80° C. On the day of assay the membranes were thawed and washed four times by resuspension in 50 mM Tris-HCl, pH 8.0 and centrifugation at 48,000 ×g for 20 minutes. The final pellet was suspended in assay buffer. The amount of protein in the final membrane preparation was determined according to the method of Lowry with some modifications. The final protein concentration used for our studies was between 250-500 μg/ml.
Membranes were re-suspended and incubated in 50 mM Tris-HCl, pH 8.0. […] Incubations were terminated using a Millipore filter system. The samples were rinsed three times with 2.5 ml ice cold assay buffer over glass fiber filters obtained from Schleicher & Schuell under a constant vacuum. Filtration was performed as rapidly as possible. Following separation and rinse, the filters were placed into scintillation liquid (5 ml; Ultima Gold) and radio activity retained on the filters was determined with a conventional liquid scintillation counter (Hewlett Packard, Liquid Scintillation Analyser).
(§1) IC50 s in patch clamp, excitotoxicity, and binding studies were calculated according to the four parameter logistic equation using the Grafit computer program (Erithacus Software, England). Ki value for binding studies were then determined according to Cheng and Prusoff. Binding values presented are means±SEM of 3-5 determinations (each performed in duplicate). […] Pearson product moment correlation analysis (Sigma Stat, Jandel Scientific) was used to compare in vitro potencies and in vivo anticonvulsant activity.

[1] = Rotarod test (motor coordination, ataxia) in mice, therapeutic index versus MES; assay type: in vivo; settings: ED50 for rotarod failure divided by ED50 for MES; for selectivity ratio at 0.5 h: mouse, in vivo, ip, read-out: TI Rot.; for TI Rot.: 30 min
Procedure: All compounds were dissolved in 0.9% saline.
The MES test was performed together with tests for myorelaxant action (traction reflex) and motor coordination (rotarod). For the traction reflex test mice were placed with their forepaws on a horizontal rod and were required to place all 4 paws on the wire within 10 seconds. To test ataxia (motor coordination) mice were placed on rotarod (5 rpm) and were required to remain on the rod for 1 minute. […] These tests were followed by MES (100 Hz, 0.5 second shock duration, 50 mA shock intensity, 0.9 ms impulse duration, Ugo Basile) applied through corneal electrodes. The presence of tonic convulsions was scored (tonic extension of hind paws with minimum angle to the body of 90°). The aim was to obtain ED50 s for all parameters scored (anticonvulsive activity and motor side effects) with use of the Litchfield Wilcoxon test for quantal dose responses. Division of the ED50 for side effects (ataxia or myorelaxation) by the ED50 for antagonism of electroshock convulsions was used as a therapeutic index (TI).
as §1, with “Prusoff.” for “Prusoff. Binding values presented are means±SEM of 3-5 determinations (each performed in duplicate).”

[2] = Solubility (analytical certificates); assay type: physicochemical
[3] = human, in vivo; cited from earlier work
PTZ-induced convulsions = assay type: in vivo, mice; settings: Mus musculus, ip; read-out: ED50 in the PTZ test
NMDA-induced convulsions = assay type: in vivo, mice; settings: Mus musculus, ip; read-out: ED50 in the NMDA test

Structure (SMILES) | Ki (NMDA receptor) | IC50 (NMDA receptor) | selectivity ratio at 0.5 h [1] | further results
C[C@@H]1CC(C)(C)C[C@@](C)(N)C1 (relative stereo) [Mrz 2/607] | 7.74 µM | 8.2 µM | – | –
CCC[C@@]1(C)C[C@H](C)C[C@@](C)(N)C1 (relative stereo) [Mrz 2/618] | 24 µM | 32.7 µM | – | –
CCC[C@]1(C)C[C@@H](C)C[C@@](C)(N)C1 (relative stereo) [Mrz 2/619] | 57.8 µM | 72.1 µM | – | –
CC[C@@]1(C)C[C@H](C)C[C@@](C)(N)C1 (relative stereo) [Mrz 2/622] | 13.3 µM | 15 µM | – | –
CC[C@]1(C)C[C@@H](C)C[C@@](C)(N)C1 (relative stereo) [Mrz 2/624] | 15.1 µM | 15.4 µM | – | –
C[C@@H]1CCC[C@@](C)(N)C1 (relative stereo) [Mrz 2/625] | 52.6 µM | 46.8 µM | – | –
CCC[C@@H]1CCC[C@@](C)(N)C1 (relative stereo) [Mrz 2/627] | 71 µM | 70.3 µM | – | –
CCC[C@H]1CCC[C@@](C)(N)C1 (relative stereo) [Mrz 2/628] | 49.2 µM | 35.6 µM | – | –
CC[C@@H]1CCC[C@@](C)(N)C1 (relative stereo) [Mrz 2/629] | 49.3 µM | 39.4 µM | – | –
CC[C@H]1CCC[C@@](C)(N)C1 (relative stereo) [Mrz 2/630] | 49.1 µM | 44.3 µM | – | –
C[C@H]1CCC[C@@](C)(N)C1 (relative stereo) [Mrz 2/631] | 65.3 µM | 69.7 µM | – | –
CC[C@H]1CC(C)(C)C[C@@](C)(N)C1 (relative stereo) [Mrz 2/632] | 2.88 µM | 2 µM | – | –
CC[C@@H]1CC(C)(C)C[C@@](C)(N)C1 (relative stereo) [Mrz 2/633] | 5.18 µM | 6.8 µM | – | –
CCC[C@@H]1CC(C)(C)C[C@](C)(N)C1 (relative stereo) [Mrz 2/634] | 13.4 µM | 15.5 µM | – | –
CCC[C@@H]1CC(C)(C)C[C@@](C)(N)C1 (relative stereo) [Mrz 2/635] | 15 µM | 7.8 µM | – | –
C[C@H]1CC(C)(C)C[C@@](C)(N)C1 (relative stereo) [Mrz 2/643] | 4.66 µM | 3.6 µM | 2.4 | –
C[C@@H]1C[C@H](C)C[C@@](C)(N)C1 [MRZ 2/680, 1,trans-3,trans-5-Trimethylcyclohexylamine hydrochloride] | 30 µM | – | 1.1 | Solubility [2]: soluble in water, chloroform
C[C@@H]1C[C@H](C)C[C@](C)(N)C1 [MRZ 2/681, 1,cis-3,cis-5-Trimethylcyclohexylamine hydrochloride hydrate] | 19.2 µM | – | 5.8 | Solubility [2]: soluble in water, chloroform
CC[C@H]1CC(C)(C)C[C@](C)(N)C1 [MRZ 2/682, (1R, 5S) trans-3-Ethyl-1,5,5-trimethylcyclohexylamine hydrochloride] | 1.99 µM | – | 3.6 | Solubility [2]: soluble in chloroform, poor soluble in water
CC[C@H]1CC(C)(C)C[C@@](C)(N)C1 [MRZ 2/683, (1S, 5S) cis-3-Ethyl-1,5,5-trimethylcyclohexylamine hydrochloride hydrate] | 4.44 µM | – | 3.5 | Solubility [2]: soluble in chloroform, poor soluble in water

Structure (SMILES) | Ki (NMDA receptor) | IC50 (NMDA receptor) | selectivity ratio at 0.5 h [1] | further results
CC12CC3CC(C)(C1)CC(N)(C3)C2 [Memantine, reference compound] | 2.45 µM | 0.7 µM | 2.5 | side effects in humans [3]: rarely produce side effects at the therapeutic doses
CC1(C)CC(N)CC(C)(C)C1 [Mrz 2/557] | 19.9 µM | 17.6 µM | – | –
CC1(C)CC(C)(C)CC(C)(N)C1 [Mrz 2/579, 1-amino-1,3,3,5,5-pentamethylcyclohexane] | 1.47 µM | 1.9 µM | – | ED50 (PTZ-induced convulsions): 5.5 mg/kg; ED50 (NMDA-induced convulsions): 3.7 mg/kg
CC1(C)CC(CN)CC(C)(C)C1.Cl [Mrz 2/580, 3,3,5,5-tetramethylcyclohexylmethylamine hydrochloride] | 17.8 µM | 15.9 µM | – | –
CCC1(N)CC(C)(C)CC(C)(C)C1 [Mrz 2/600, 1-amino-1-ethyl-3,3,5,5-tetramethylcyclohexane] | 2.28 µM | 2.4 µM | – | –
CCCC1(N)CC(C)(C)CC(C)(C)C1 [Mrz 2/601, 1-amino-1-propyl-3,3,5,5-tetramethylcyclohexane] | 8.09 µM | 7.4 µM | – | TI Rot. [1]: 1.5
CCCC1(C)CC(C)(C)CC(C)(N)C1 (centres unmarked) [Mrz 2/614] | 13.6 µM | 13.6 µM | 1.6 | –
CCC1(C)CC(C)(C)CC(C)(N)C1 (centres unmarked) [Mrz 2/615, 1-amino-1,3,5,5-tetramethyl-3-ethylcyclohexane] | 2.42 µM | 2.5 µM | – | –
CC1CC(C)CC(C)(N)C1 (centres unmarked) [Mrz 2/616, 1-amino-1,3,5-trimethylcyclohexane] | 10.4 µM | 15 µM | – | Solubility [2]: soluble in svater, chloroform
CCCC1(C)CCCC(C)(N)C1 (centres unmarked) [Mrz 2/617] | 38 µM | 51.8 µM | 1.1 | –
CCC1(C)CCCC(C)(N)C1 (centres unmarked) [Mrz 2/620] | 25.5 µM | 32.2 µM | 1.5 | –
CC1(C)CCCC(C)(N)C1 (centres unmarked) [Mrz 2/621] | 32.2 µM | 36.7 µM | 1.5 | –
CCC1(CC)CC(C)(C)CC(C)(N)C1 (centres unmarked) [Mrz 2/623, 1-amino-1,5,5-trimethyl-3,3-diethylcyclohexane] | 3.16 µM | 3.3 µM | – | –
CCCC1(CCC)CC(C)(C)CC(C)(N)C1 (centres unmarked) [Mrz 2/626] | 16.5 µM | 11.6 µM | 1 | –
CCNC1(C)CC(C)(C)CC(C)(C)C1 [Mrz 2/639, N-ethyl-1-amino-1,3,3,5,5-pentamethylcyclohexane] | 4.17 µM | 3.3 µM | – | –
CNC1(C)CC(C)(C)CC(C)(C)C1.Cl [Mrz 2/640, N,1,3,3,5,5-hexamethylcyclohexanamine hydrochloride] | 4.83 µM | 3.7 µM | – | –
CC1(N)CCCCC1 [Mrz 2/641] | 143 µM | 184 µM | – | –
CN(C)C1(C)CC(C)(C)CC(C)(C)C1 [Mrz 2/642] | 12.7 µM | 10.2 µM | – | TI Rot. [1]: 5.3
CC1(C)CC(CCN)CC(C)(C)C1 [Mrz 2/644] | 4.84 µM | 3.8 µM | – | –
CC(C)(N)CC1CC(C)(C)CC(C)(C)C1 [Mrz 2/645] | 60.2 µM | 85.1 µM | 0.6 | –
